From ChEMBL document CHEMBL5678818, “Discovery of potent SOS1 inhibitors that block RAS activation via disruption of the RAS-SOS1 interaction” (Proc Natl Acad Sci U S A, 2019)

Assays:
[1] = tested on: Tyrosine-protein kinase ABL1 (Homo sapiens), P00519 [M351T]; experiment: Inhibition of phosphorylated ABL1 M351T mutant (unknown origin) assessed as residual activity at 1000 nM by KINOMEscan analysis relative to control
[2] = tested on: Tyrosine-protein kinase ABL1 (Homo sapiens), P00519 [T315I]; experiment: Inhibition of nonphosphorylated ABL1 T315I mutant (unknown origin) assessed as residual activity at 1000 nM by KINOMEscan analysis relative to control
[3] = target: Protein-tyrosine kinase 6 (Homo sapiens) (UniProt Q13882); experiment: Inhibition of BRK (unknown origin) assessed as residual activity at 1000 nM by KINOMEscan analysis relative to control
Protein-tyrosine kinase 6 (Homo sapiens), sequence (Q13882 whole entry, looked up): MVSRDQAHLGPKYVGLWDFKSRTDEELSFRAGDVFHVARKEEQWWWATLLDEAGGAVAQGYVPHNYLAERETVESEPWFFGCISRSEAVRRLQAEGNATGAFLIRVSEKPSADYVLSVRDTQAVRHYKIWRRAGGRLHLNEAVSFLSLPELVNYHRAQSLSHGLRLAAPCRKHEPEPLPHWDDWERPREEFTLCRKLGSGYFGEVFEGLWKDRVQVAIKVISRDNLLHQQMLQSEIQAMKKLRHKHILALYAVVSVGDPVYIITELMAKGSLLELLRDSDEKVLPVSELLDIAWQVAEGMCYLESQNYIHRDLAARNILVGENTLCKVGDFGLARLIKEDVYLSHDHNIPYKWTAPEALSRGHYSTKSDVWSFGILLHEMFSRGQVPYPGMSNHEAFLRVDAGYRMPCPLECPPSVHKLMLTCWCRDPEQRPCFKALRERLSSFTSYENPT

[4] = target: Dual specificity protein kinase CLK1 (Homo sapiens) (UniProt P49759); experiment: Inhibition of CLK1 (unknown origin) assessed as residual activity at 1000 nM by KINOMEscan analysis relative to control
Dual specificity protein kinase CLK1 (Homo sapiens), sequence (P49759 whole entry, looked up): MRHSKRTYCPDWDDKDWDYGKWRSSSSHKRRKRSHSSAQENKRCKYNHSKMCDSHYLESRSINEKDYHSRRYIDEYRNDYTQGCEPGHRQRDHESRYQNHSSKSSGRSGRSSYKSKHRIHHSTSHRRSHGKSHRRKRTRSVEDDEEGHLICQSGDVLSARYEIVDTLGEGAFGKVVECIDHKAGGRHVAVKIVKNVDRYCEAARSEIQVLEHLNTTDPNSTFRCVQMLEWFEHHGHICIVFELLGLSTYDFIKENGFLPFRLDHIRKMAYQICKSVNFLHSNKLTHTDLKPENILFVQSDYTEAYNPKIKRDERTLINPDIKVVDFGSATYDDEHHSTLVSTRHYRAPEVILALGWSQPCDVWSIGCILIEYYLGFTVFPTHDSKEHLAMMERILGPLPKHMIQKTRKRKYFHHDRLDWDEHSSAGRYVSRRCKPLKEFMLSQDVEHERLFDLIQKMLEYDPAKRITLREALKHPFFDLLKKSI

[5] = tested on: Epidermal growth factor receptor (Homo sapiens), P00533 [UNDEFINED MUTATION]; experiment: Inhibition of EGFR E746-A750del mutant (unknown origin) assessed as residual activity at 1000 nM by KINOMEscan analysis relative to control
Epidermal growth factor receptor (Homo sapiens), P00533 [UNDEFINED MUTATION], sequence (P00533 whole entry, looked up, stated change not applied): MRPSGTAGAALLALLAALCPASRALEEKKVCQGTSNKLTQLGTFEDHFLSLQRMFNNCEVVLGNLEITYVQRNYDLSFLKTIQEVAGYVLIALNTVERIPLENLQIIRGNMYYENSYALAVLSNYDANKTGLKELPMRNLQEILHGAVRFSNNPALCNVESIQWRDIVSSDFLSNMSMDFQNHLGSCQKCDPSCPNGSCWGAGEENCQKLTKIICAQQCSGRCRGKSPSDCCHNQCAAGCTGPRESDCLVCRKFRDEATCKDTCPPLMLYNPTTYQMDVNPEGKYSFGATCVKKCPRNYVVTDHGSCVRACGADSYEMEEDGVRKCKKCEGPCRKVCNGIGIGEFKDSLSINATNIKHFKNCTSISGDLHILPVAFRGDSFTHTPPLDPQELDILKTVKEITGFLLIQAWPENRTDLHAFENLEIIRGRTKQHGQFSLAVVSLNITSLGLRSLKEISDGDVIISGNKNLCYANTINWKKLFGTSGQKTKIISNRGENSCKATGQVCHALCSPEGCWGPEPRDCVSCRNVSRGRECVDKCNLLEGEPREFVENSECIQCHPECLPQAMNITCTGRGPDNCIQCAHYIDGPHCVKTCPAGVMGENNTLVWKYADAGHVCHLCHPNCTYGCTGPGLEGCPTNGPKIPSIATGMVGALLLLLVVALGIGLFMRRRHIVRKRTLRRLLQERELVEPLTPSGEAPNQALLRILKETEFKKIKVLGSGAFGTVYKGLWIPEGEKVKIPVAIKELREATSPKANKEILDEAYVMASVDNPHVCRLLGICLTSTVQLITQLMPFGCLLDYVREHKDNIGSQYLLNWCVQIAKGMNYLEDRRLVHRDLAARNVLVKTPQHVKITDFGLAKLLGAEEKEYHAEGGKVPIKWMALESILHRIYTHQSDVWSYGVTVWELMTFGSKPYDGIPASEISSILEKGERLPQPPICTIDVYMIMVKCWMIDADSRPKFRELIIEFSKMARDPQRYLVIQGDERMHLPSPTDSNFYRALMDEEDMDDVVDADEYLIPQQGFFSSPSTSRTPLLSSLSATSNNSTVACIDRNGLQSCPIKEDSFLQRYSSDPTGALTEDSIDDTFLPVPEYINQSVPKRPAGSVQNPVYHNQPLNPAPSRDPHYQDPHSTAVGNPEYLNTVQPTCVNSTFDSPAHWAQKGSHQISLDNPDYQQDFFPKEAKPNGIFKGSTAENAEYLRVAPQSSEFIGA

[6] = target: Insulin-like growth factor 1 receptor (Homo sapiens) (UniProt P08069); experiment: Inhibition of IGF1R (unknown origin) assessed as residual activity at 1000 nM by KINOMEscan analysis relative to control
[7] = target: T1, Phosphatidylinositol 4,5-bisphosphate 3-kinase catalytic subunit delta isoform (Homo sapiens) (UniProt O00329); experiment: Inhibition of PIK3CD (unknown origin) assessed as residual activity at 1000 nM by KINOMEscan analysis relative to control
T1 sequence (whole entry): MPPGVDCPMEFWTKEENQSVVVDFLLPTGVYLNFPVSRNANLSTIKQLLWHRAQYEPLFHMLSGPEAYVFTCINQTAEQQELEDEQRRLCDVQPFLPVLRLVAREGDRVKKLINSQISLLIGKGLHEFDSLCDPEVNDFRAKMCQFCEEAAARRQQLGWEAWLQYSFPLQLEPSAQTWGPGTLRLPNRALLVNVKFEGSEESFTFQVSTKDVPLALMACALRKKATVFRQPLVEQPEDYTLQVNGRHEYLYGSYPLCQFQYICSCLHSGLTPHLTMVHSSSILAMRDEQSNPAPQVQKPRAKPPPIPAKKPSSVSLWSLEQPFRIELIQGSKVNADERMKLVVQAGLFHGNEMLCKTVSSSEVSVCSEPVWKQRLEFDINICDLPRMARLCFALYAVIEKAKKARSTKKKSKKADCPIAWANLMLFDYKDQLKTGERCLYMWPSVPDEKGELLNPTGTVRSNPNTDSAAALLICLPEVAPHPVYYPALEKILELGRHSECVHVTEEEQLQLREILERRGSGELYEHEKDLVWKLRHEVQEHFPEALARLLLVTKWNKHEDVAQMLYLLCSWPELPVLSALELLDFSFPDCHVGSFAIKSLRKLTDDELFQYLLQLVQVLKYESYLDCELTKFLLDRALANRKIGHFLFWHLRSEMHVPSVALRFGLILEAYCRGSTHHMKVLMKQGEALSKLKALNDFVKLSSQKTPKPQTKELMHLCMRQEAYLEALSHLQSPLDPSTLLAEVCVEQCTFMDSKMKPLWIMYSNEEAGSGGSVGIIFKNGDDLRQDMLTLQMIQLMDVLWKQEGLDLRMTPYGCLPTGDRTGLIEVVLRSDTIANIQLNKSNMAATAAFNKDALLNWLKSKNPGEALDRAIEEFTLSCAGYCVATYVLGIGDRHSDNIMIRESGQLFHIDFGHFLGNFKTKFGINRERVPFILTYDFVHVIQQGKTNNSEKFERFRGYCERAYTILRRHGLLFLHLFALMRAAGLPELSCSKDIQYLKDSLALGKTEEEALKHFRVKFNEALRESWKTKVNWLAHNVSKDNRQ

[8] = target: T2, Dual serine/threonine and tyrosine protein kinase (Homo sapiens) (UniProt Q6XUX3); experiment: Inhibition of RIPK5 (unknown origin) assessed as residual activity at 1000 nM by KINOMEscan analysis relative to control
T2 sequence (whole entry): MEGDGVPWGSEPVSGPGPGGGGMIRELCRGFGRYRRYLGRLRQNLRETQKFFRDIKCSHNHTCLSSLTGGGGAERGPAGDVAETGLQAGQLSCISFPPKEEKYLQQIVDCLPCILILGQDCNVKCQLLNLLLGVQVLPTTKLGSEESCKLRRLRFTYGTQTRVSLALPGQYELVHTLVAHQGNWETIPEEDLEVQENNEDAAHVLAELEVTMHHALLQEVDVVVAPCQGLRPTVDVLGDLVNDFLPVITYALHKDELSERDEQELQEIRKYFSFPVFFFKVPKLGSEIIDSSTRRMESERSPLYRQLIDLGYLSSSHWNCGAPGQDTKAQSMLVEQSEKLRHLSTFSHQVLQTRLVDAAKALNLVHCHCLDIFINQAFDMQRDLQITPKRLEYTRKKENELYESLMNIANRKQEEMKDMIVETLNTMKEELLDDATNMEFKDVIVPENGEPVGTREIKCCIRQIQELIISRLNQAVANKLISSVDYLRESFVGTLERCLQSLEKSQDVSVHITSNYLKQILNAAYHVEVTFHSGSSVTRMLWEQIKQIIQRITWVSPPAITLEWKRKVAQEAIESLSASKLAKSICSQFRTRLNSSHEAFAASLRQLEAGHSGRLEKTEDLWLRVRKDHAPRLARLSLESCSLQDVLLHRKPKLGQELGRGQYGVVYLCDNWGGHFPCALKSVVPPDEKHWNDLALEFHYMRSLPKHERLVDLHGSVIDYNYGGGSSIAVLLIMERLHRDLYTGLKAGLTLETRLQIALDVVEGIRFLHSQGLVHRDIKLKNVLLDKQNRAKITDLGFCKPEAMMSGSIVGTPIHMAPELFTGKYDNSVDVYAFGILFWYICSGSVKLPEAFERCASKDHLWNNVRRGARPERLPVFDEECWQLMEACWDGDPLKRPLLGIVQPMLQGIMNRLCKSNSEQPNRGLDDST

[9] = target: Angiopoietin-1 receptor (Homo sapiens) (UniProt Q02763); experiment: Inhibition of TIE2 (unknown origin) assessed as residual activity at 1000 nM by KINOMEscan analysis relative to control
Angiopoietin-1 receptor (Homo sapiens), sequence (Q02763 whole entry): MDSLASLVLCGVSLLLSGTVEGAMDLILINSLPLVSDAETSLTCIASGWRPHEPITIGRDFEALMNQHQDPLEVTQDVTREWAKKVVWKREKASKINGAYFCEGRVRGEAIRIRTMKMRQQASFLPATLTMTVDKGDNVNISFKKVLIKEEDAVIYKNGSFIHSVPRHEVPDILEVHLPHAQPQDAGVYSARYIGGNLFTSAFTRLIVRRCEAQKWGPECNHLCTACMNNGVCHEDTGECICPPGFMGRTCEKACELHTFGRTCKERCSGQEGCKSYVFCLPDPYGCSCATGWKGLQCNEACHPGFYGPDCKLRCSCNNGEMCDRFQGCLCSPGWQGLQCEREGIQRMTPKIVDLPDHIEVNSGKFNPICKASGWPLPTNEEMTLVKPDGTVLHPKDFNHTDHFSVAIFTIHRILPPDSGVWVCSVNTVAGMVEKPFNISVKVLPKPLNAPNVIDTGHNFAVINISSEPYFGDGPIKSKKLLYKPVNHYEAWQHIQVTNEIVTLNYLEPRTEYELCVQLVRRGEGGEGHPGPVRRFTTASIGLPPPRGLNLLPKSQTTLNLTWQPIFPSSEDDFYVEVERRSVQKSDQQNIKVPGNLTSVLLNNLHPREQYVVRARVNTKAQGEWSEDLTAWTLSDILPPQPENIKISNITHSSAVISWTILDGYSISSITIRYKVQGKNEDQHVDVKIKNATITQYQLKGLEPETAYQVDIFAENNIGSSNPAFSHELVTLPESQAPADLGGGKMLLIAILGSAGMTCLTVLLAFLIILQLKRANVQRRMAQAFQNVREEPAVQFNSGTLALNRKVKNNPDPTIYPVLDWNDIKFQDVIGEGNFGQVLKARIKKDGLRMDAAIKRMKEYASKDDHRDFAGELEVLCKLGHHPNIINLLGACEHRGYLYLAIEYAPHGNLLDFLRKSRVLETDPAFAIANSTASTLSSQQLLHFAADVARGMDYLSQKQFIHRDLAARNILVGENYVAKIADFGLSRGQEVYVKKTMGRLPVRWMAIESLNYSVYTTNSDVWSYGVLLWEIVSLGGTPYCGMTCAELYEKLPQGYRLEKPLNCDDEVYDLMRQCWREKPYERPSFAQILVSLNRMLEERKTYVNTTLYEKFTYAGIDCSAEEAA

[10] = target: BDNF/NT-3 growth factors receptor (Homo sapiens) (UniProt Q16620); experiment: Inhibition of TRKB (unknown origin) assessed as residual activity at 1000 nM by KINOMEscan analysis relative to control
BDNF/NT-3 growth factors receptor (Homo sapiens), sequence (Q16620 32-822 limits assumed): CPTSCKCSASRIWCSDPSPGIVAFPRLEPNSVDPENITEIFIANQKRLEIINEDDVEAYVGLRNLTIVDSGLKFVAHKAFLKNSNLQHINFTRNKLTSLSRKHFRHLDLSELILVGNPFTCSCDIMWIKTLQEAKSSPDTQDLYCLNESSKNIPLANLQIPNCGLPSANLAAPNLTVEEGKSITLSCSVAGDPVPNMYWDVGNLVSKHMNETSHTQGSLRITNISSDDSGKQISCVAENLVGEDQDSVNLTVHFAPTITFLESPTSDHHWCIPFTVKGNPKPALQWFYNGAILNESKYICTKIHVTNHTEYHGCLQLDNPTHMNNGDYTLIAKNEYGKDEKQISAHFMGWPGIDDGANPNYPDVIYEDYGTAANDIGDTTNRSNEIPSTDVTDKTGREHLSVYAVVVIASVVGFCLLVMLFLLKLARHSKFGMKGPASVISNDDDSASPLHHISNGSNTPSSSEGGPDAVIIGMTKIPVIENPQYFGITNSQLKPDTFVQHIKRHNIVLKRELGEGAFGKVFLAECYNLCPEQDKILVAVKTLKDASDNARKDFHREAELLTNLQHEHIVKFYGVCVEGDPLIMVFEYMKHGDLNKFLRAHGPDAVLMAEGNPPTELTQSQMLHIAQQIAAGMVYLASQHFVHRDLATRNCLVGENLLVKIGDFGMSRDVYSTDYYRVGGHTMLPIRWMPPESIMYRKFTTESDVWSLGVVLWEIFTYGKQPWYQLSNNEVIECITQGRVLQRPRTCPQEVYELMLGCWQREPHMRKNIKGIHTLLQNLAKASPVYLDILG

Row | Structure (SMILES) | Activity [1] | Activity [2] | Activity [3] | Activity [4] | Activity [5] | Activity [6] | Activity [7] | Activity [8] | Activity [9] | Activity [10]
1 | COc1cc2nc(C)nc(N[C@H](C)c3cccc(-c4cn[nH]c4)c3)c2cc1OC | 97% | 95% | 57% | 70% | 100% | 100% | 96% | 77% | 81% | 98%
2 | COc1cc2ncnc(N[C@H](C)c3cccc4ccccc34)c2cc1OC | 97% | 100% | 100% | 100% | 5.9% | 100% | 68% | 86% | 100% | 100%
